Laboratory results published in US10370366B2 (Flatley Discovery Lab, LLC, priority 2013, dated 2019).

Target: T1, human F508del CFTR (Homo sapiens, UniProt P13569, DEL508-508)
T1 construct: expressed in transfected cells; host or cells: Fisher Rat Thyroid (FRT) cells
Assay: CFTR-YFP High Throughput Assay
Type: cell-based
Conditions: FRT cells expressing human F508del CFTR and YFP; for Emax: EMax normalized to the positive control, read-out: % Efficacy
Method in brief: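 Corrector mode: 24-26 h compound exposure (2 nM-40 μM, 37° C) of FRT cells carrying human F508del CFTR and YFP-H148Q/I152L, followed by washing and 60-120 min RT stimulation with 20 μM forskolin and 30 μM P3. CFTR activity is the least-squares-fitted rate of YFP quenching (Ex 500/Em 540 nm) after iodide addition.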

T1 sequence (P13569 with tags, fused parts or gaps DEL508-508): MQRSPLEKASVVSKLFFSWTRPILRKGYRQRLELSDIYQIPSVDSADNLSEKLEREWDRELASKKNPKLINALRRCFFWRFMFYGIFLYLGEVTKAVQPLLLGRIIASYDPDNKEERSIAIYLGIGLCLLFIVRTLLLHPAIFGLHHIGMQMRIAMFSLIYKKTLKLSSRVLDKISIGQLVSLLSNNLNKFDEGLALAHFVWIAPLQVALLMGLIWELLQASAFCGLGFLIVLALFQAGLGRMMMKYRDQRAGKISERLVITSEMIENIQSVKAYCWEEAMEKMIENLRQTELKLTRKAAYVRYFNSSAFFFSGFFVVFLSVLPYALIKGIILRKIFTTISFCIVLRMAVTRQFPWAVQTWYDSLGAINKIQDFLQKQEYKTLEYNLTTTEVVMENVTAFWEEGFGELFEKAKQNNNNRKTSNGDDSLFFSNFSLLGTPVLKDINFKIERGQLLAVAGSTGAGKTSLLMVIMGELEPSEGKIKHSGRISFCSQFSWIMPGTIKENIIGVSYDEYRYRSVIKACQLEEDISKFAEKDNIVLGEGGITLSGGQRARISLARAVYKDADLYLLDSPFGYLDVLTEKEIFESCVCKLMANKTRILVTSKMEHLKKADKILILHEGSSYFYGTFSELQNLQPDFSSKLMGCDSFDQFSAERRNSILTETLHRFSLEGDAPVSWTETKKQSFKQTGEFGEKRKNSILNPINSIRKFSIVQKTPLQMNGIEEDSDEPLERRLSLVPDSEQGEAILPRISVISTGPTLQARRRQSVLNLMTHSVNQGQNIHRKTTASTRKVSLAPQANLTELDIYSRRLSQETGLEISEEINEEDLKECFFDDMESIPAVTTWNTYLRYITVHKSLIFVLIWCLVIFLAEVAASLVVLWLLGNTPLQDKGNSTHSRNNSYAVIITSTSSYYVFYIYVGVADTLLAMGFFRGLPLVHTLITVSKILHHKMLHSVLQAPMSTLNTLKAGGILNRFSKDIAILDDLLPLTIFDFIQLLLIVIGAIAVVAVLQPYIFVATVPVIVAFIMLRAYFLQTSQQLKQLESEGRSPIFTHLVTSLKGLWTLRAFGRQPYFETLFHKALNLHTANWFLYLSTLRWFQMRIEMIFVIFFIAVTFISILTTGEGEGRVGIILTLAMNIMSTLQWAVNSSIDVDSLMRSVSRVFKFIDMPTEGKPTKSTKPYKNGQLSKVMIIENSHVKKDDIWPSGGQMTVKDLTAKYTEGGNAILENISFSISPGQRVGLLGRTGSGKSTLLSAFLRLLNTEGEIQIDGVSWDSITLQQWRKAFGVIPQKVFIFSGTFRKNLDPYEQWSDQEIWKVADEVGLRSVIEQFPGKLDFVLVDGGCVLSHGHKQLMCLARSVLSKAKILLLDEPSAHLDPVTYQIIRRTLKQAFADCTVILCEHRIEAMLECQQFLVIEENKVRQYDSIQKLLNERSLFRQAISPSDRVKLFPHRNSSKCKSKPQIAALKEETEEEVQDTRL

Row | Compound | Emax | EC50
1 | Cc1nc2ccc(N(C)C(=O)Cn3nc(-c4cccc(C#N)c4)c4ccc(OC5CCOCC5)cc4c3=O)cc2o1 [Example 120, 2-(4-(3-cyanophenyl)-1-oxo-7-((tetrahydro-2H-pyran-4-yl)oxy)phthalazin-2(1H)-yl)-N-methyl-N-(2-methylbenzo[d]oxazol-6-yl)acetamide] | > 80% | < 10 µM
2 | CCOc1cc2c(=O)n(CC(=O)N(C)c3ccc4nc(C)oc4c3)nc(-c3cccc(F)c3)c2cc1Cl [Example 121, 2-(6-chloro-7-ethoxy-4-(3-fluorophenyl)-1-oxophthalazin-2(1H)-yl)-N-methyl-N-(2-methylbenzo[d]oxazol-6-yl)acetamide] | > 80% | 
3 | CCOc1cc2c(=O)n(CC(=O)N(C)c3ccc4c(c3)OC(F)(F)O4)nc(-c3cccc(C#N)c3)c2cc1Cl [Example 122, 2-(6-chloro-4-(3-cyanophenyl)-7-ethoxy-1-oxophthalazin-2(1H)-yl)-N-(2,2-difluorobenzo[d][1,3]dioxol-5-yl)-N-methylacetamide] | > 80% | < 10 µM
4 | CCN(C(=O)Cn1nc(C(=O)Nc2ccccc2C#N)c2ccccc2c1=O)c1ccc2c(c1)OC(F)(F)O2 [Example 124, N-(2-cyanophenyl)-3-(2-((2,2-difluorobenzo[d][1, 3]dioxol-5-yl)(ethyl)amino)-2-oxoethyl)-4-oxo-3,4-dihydrophthalazine-1-carboxamide] | 30 to 80% | 
5 | CCN(C(=O)Cn1nc(C(=O)Nc2cc(Cl)ccc2C(=O)O)c2ccccc2c1=O)c1ccc2c(c1)OC(F)(F)O2 [Example 125] | 30 to 80% | 
6 | CCN(C(=O)Cn1nc(C(=O)Nc2ccccn2)c2ccccc2c1=O)c1ccc2c(c1)OC(F)(F)O2 [Example 126, 3-(2-((2,2-difluorobenzo[d][1,3]dioxol-5-yl)(ethyl)amino)-2-oxoethyl)-4-oxo-N-(pyridin-2-yl)-3,4-dihydrophthalazine-1-carboxamide] | 30 to 80% | < 10 µM
7 | CCN(C(=O)Cn1nc(C(=O)N(C)c2ccccn2)c2ccccc2c1=O)c1ccc2c(c1)OC(F)(F)O2 [Example 127, 3-(2-((2,2-difluorobenzo[d][1,3]dioxol-5-yl)(ethyl)amino)-2-oxoethyl)-N-methyl-4-oxo-N-(pyridin-2-yl)-3,4-dihydrophthalazine-1-carboxamide] | 30 to 80% | < 10 µM
8 | CCc1ccc(N(CC)C(=O)Cn2nc(C(=O)Nc3cc(Cl)ccc3C#N)c3ccccc3c2=O)cc1 [Example 128, N-(5-chloro-2-cyanophenyl)-3-(2-(ethyl(4-ethylphenyl)amino)-2-oxoethyl)-4-oxo-3,4-dihydrophthalazine-1-carboxamide] | 30 to 80% | 10 to 20 µM
9 | CCN(C(=O)Cn1nc(C(=O)N(CC)c2ccccc2C#N)c2ccccc2c1=O)c1ccc2c(c1)OC(F)(F)O2 [Example 129, N-(2-cyanophenyl)-3-(2-((2,2-difluorobenzo[d][1,3]dioxol-5-yl)(ethyl)amino)-2-oxoethyl)-N-ethyl-4-oxo-3,4-dihydrophthalazine-1-carboxamide] | 30 to 80% | 10 to 20 µM
10 | CCc1ccc(N(CC)C(=O)Cn2nc(C(=O)Nc3cc(Cl)ccc3C(=O)OC)c3ccccc3c2=O)cc1 [Example 130, methyl 4-chloro-2-(3-(2-(ethyl(4-ethylphenyl)amino)-2-oxoethyl)-4-oxo-3,4-dihydrophthalazine-1-carboxamido)benzoate] | 30 to 80% | 
11 | CCN(C(=O)Cn1ncc2c(c1=O)c1ccccc1n2Cc1ccccn1)c1ccc2c(c1)OC(F)(F)O2 [Example 131, N-(2,2-difluorobenzo[d][1, 3]dioxol-5-yl)-N-ethyl-2-(1-oxo-5-(pyridin-2-ylmethyl)-1H-pyridazino[4,5-b]indol-2(5H)-yl)acetamide] | 30 to 80% | 
12 | CCN(C(=O)Cn1ncc2c(c1=O)c1ccccc1n2CCOC)c1ccc2c(c1)OC(F)(F)O2 [Example 132, N-(2,2-difluorobenzo[d][1,3]dioxol-5-yl)-N-ethyl-2-(5-(2-methoxyethyl)-1-oxo-1H-pyridazino[4,5-b]indol-2(5H)-yl)acetamide] | 30 to 80% | 
13 | CCN(C(=O)Cn1ncc2c(c1=O)c1ccccc1n2Cc1ccccc1)c1ccc2c(c1)OC(F)(F)O2 [Example 133, 2-(5-benzyl-1-oxo-1H-pyridazino[4,5-b]indol-2(5H)-yl)-N-(2,2-difluorobenzo[d][1,3]dioxol-5-yl)-N-ethylacetamide] | 30 to 80% | 
14 | CCN(C(=O)Cn1ncc2c(c1=O)c1ccccc1n2CCC(=O)OC)c1ccc2c(c1)OC(F)(F)O2 [Example 134, methyl 3-(2-(2-((2,2-difluorobenzo[d][1,3]dioxol-5-yl)(ethyl)amino)-2-oxoethyl)-1-oxo-1H-pyridazino[4,5-b]indol-5(2H)-yl)propanoate] | 30 to 80% | 
15 | CCN(C(=O)Cn1ncc2c(c1=O)c1ccccc1n2Cc1cccc(OC)c1)c1ccc2c(c1)OC(F)(F)O2 [Example 135, N-(2,2-difluorobenzo[d][1,3]dioxol-5-yl)-N-ethyl-2-(5-(3-methoxybenzyl)-1-oxo-1H-pyridazino[4,5-b]indol-2(5H)-yl)acetamide] | 30 to 80% | < 10 µM
16 | CCN(C(=O)Cn1ncc2c(c1=O)c1ccccc1n2Cc1ccc(OC)cc1)c1ccc2c(c1)OC(F)(F)O2 [Example 136, N-(2,2-difluorobenzo[d][1,3]dioxol-5-yl)-N-ethyl-2-(5-(4-methoxybenzyl)-1-oxo-1H-pyridazino[4,5-b]indol-2(5H)-yl)acetamide] | 30 to 80% | < 10 µM
17 | CCN(C(=O)Cn1ncc2c(c1=O)c1ccccc1n2CCCOC)c1ccc2c(c1)OC(F)(F)O2 [Example 137, N-(2,2-difluorobenzo[d][1,3]dioxol-5-yl)-N-ethyl-2-(5-(3-methoxypropyl)-1-oxo-1H-pyridazino[4,5-b]indol-2(5H)-yl)acetamide] | 30 to 80% | 
18 | CCN(C(=O)Cn1ncc2c(c1=O)c1ccccc1n2CCC#N)c1ccc2c(c1)OC(F)(F)O2 [Example 138, 2-(5-(2-cyanoethyl)-1-oxo-1H-pyridazino[4,5-b]indol-2(5H)-yl)-N-(2,2-difluorobenzo[d][1,3]dioxol-5-yl)-N-ethylacetamide] | 10 to 30% | > 20 µM
19 | CCN(C(=O)Cn1ncc2c(c1=O)c1ccccc1n2CC#N)c1ccc2c(c1)OC(F)(F)O2 [Example 139, 2-(5-(cyanomethyl)-1-oxo-1H-pyridazino[4,5-b]indol-2(5H)-yl)-N-(2,2-difluorobenzo[d][1,3]dioxol-5-yl)-N-ethylacetamide] | 30 to 80% | 10 to 20 µM
20 | CCN(C(=O)Cn1ncc2c(c1=O)c1ccccc1n2Cc1cccnc1)c1ccc2c(c1)OC(F)(F)O2 [Example 140, N-(2,2-difluorobenzo[d][1,3]dioxol-5-yl)-N-ethyl-2-(1-oxo-5-(pyridin-3-ylmethyl)-1H-pyridazino[4,5-b]indol-2(5H)-yl)acetamide] | 30 to 80% | 
21 | CCN(C(=O)Cn1ncc2c(c1=O)c1ccccc1n2Cc1ccccc1C#N)c1ccc2c(c1)OC(F)(F)O2 [Example 141, 2-(5-(2-cyanobenzyl)-1-oxo-1H-pyridazino[4,5-b]indol-2(5H)-yl)-N-(2,2-difluorobenzo[d][1,3]dioxol-5-yl)-N-ethylacetamide] | 30 to 80% | 
22 | CCN(C(=O)Cn1ncc2c(c1=O)c1ccccc1n2Cc1cccc(C#N)c1)c1ccc2c(c1)OC(F)(F)O2 [Example 142, 2-(5-(3-cyanobenzyl)-1-oxo-1H-pyridazino[4,5-b]indol-2(5H)-yl)-N-(2,2-difluorobenzo[d][1,3]dioxol-5-yl)-N-ethylacetamide] | 30 to 80% | 
23 | CCN(C(=O)Cn1ncc2c(c1=O)c1ccccc1n2Cc1ccncc1)c1ccc2c(c1)OC(F)(F)O2 [Example 143, N-(2,2-difluorobenzo[d][1,3]dioxol-5-yl)-N-ethyl-2-(1-oxo-5-(pyridin-4-ylmethyl)-1H-pyridazino[4,5-b]indol-2(5H)-yl)acetamide] | 30 to 80% | 
24 | CCN(C(=O)Cn1ncc2c(c1=O)c1ccccc1n2Cc1ccc(C#N)cc1)c1ccc2c(c1)OC(F)(F)O2 [Example 144, 2-(5-(4-cyanobenzyl)-1-oxo-1H-pyridazino[4,5-b]indol-2(5H)-yl)-N-(2-2-difluorobenzo[d][1,3]dioxol-5-yl)-N-ethylacetamide] | > 80% | 10 to 20 µM
25 | CCN(C(=O)Cn1ncc2c(c1=O)c1ccccc1n2Cc1ccc(C#N)c(F)c1)c1ccc2c(c1)OC(F)(F)O2 [Example 145, 2-(5-(4-cyano-3-fluorobenzyl)-1-oxo-1H-pyridazino[4,5-b]indol-2(5H)-yl)-N-(2,2-difluorobenzo[d][1,3]dioxol-5-yl)-N-ethylacetamide] | 30 to 80% | < 10 µM
26 | CCN(C(=O)Cn1ncc2c(c1=O)c1ccccc1n2Cc1ccc(C#N)cc1F)c1ccc2c(c1)OC(F)(F)O2 [Example 146, 2-(5-(4-cyano-2-fluorobenzyl)-1-oxo-1H-pyridazino[4,5-b]indol-2(5H)-yl)-N-(2,2-difluorobenzo[d][1,3]dioxol-5-yl)-N-ethylacetamide] | 30 to 80% | < 10 µM
27 | Cc1nc2ccc(N(C)C(=O)Cn3ncc4c(c3=O)c3ccccc3n4Cc3ccc(Cl)cc3)cc2o1 [Example 147, 2-(5-(4-chlorobenzyl)-1-oxo-1,5-dihydro-2H-pyridazino[4,5-b]indol-2-yl)-N-methyl-N-(2-methylbenzo[d]oxazol-6-yl)acetamide] | 30 to 80% | < 10 µM
28 | Cc1nc2ccc(N(C)C(=O)Cn3ncc4c(c3=O)c3ccccc3n4Cc3ccc(F)cc3)cc2o1 [Example 148, 2-(5-(4-fluorobenzyl)-1-oxo-1,5-dihydro-2H-pyridazino[4,5-b]indol-2-yl)-N-methyl-N-(2-methylbenzo[d]oxazol-6-yl)acetamide] | 30 to 80% | < 10 µM
29 | Cc1nc2ccc(N(C)C(=O)Cn3ncc4c(c3=O)c3ccccc3n4Cc3ccc(C#N)cc3)cc2o1 [Example 149, 2-(5-(4-cyanobenzyl)-1-oxo-1,5-dihydro-2H-pyridazino[4,5-b]indol-2-yl)-N-methyl-N-(2-methylbenzo[d]oxazol-6-yl)acetamide] | 30 to 80% | < 10 µM
